Active and inactive are the calls of the source. The calls are words filed in the database; no cut-off is given here.
Tests used:
Achaea janata [1] = experiment: Antifeedant activity against 4th instar larvae of Achaea janata in […] leaves assessed as total leaf disc consumed at 200 ppm after 24 hrs by leaf disc bioassay; format: functional, organism-based
Achaea janata [2] = experiment: Antifeedant activity against 4th instar larvae of Achaea janata in […] leaves assessed as total leaf disc consumed at 150 ppm after 24 hrs by leaf disc bioassay; format: functional, organism-based

Structure (SMILES)	Activity (Achaea janata [1])	Activity (Achaea janata [2])
O=C(/C=C/c1ccc(Cl)cc1)c1nc2ccccc2[nH]1	Active	
O=C(/C=C/c1ccccc1O)c1nc2ccccc2[nH]1	Active	
O=C(/C=C/c1ccc(Br)cc1)c1nc2ccccc2[nH]1	Active	Active
O=C(/C=C/c1ccccc1)c1nc2ccccc2[nH]1	Active	
O=C(/C=C/c1cccc([N+](=O)[O-])c1)c1nc2ccccc2[nH]1	Active	
O=C(/C=C/c1ccccc1Cl)c1nc2ccccc2[nH]1	Active	
O=C(/C=C/c1ccccc1Br)c1nc2ccccc2[nH]1	Active	
COc1ccccc1/C=C/C(=O)c1nc2ccccc2[nH]1	Active	
Cc1ccccc1/C=C/C(=O)c1nc2ccccc2[nH]1	Active	
Cc1ccc(/C=C/C(=O)c2nc3ccccc3[nH]2)cc1	Active	
O=C(/C=C/c1cccc(O)c1)c1nc2ccccc2[nH]1	Active	
O=C(/C=C/c1ccc(F)cc1)c1nc2ccccc2[nH]1	Active	
O=C(/C=C/c1ccc([N+](=O)[O-])cc1)c1nc2ccccc2[nH]1	Active	
Cc1cccc(/C=C/C(=O)c2nc3ccccc3[nH]2)c1	Active	
O=C(/C=C/c1cccc(Cl)c1)c1nc2ccccc2[nH]1	Active	
COc1ccc(/C=C/C(=O)c2nc3ccccc3[nH]2)cc1	Active	
CN(C)c1ccc(/C=C/C(=O)c2nc3ccccc3[nH]2)cc1	Active	
O=C(/C=C/c1ccc(O)cc1)c1nc2ccccc2[nH]1	Active	
O=C(/C=C/c1cccc(Br)c1)c1nc2ccccc2[nH]1	Active	
O=C(/C=C/c1ccccc1[N+](=O)[O-])c1nc2ccccc2[nH]1	Active	
COc1cccc(/C=C/C(=O)c2nc3ccccc3[nH]2)c1	Active	

From ChEMBL document CHEMBL3045093, “Synthesis, spectral correlation and insect antifeedant activities of some 2-benzimidazole chalcones” (J Saudi Chem Soc, 2013)
